How the values were obtained:
Assay type in all cases: cell-based, Clostridium difficile
[1] = tested on: C. difficile ATCC BAA-1870; assay: Toxin A and B production inhibition, ELISA; conditions: 8 hours
Protocol: (§1) To investigate DIHQs toxin production inhibitory activity, toxin A and toxin B levels were measured as described previously. […] An aliquot from each tube was diluted and plated on BHIS agar plates and incubated anaerobically at 37° C. for 24 hours to detect the bacterial count. The total concentration of C. difficile toxin A and B was measured in the supernatant of each tube using enzyme linked immunosorbent assay (ELISA) kit (tgc BIOMICS, Dunwoody, GA) following the manufacturer's instructions. The (OD450-OD620) values, corresponding to the toxin concentration, were measured for DIHQ and control drugs.

C. difficile ATCC 43255 = assay: Toxin A and B production inhibition, ELISA; conditions: 8 hours
Protocol: as §1

C. difficile NR-49277 [2] = assay: Toxin A and B production inhibition, ELISA; conditions: 8 hours
Protocol: as §1

C. difficile ATCC 9689 = assay: MIC and MBC, broth microdilution; conditions: Clostridioides difficile, ATCC9689, C. difficile ATCC 9689
Protocol: (§2) MIC50 and MIC90 are the minimum concentration of each agent that inhibited growth of 50% and 90% of the tested isolates, respectively. The minimum bactericidal concentration (MBC) of these drugs was tested by plating 5 μL from wells with no growth onto BHIS agar plates. The MBC was categorized as the lowest concentration that reduced bacterial growth by 99.9% MIC50 and MIC90 are the minimum concentration of each agent that inhibited the growth of 50% and 90% of the tested isolates, respectively. The minimum bactericidal concentration (MBC) of these drugs was tested by plating 5 μL from wells with no growth onto BHIS agar plates. The MBC was categorized as the lowest concentration that reduced bacterial growth by 99.9% [29-31].

C. difficile ATCC 700057 = assay: MIC and MBC, broth microdilution; conditions: Clostridioides difficile, ATCC700057, C. difficile ATCC 700057
Protocol: as §2

C. difficile P13 = assay: MIC and MBC, broth microdilution; conditions: Clostridioides difficile, C. difficile P13
Protocol: as §2

[3] = tested on: C. difficile ATCC BAA-1870; assay: MIC and MBC, broth microdilution; conditions: Clostridioides difficile, ATCCBAA1870, C. difficile ATCC BAA-1870
Protocol: as §2

C. difficile NR-49281 = assay: MIC and MBC, broth microdilution; conditions: Clostridioides difficile, NR49281, C. difficile NR-49281
Protocol: as §2

C. difficile NR-49284 = assay: MIC and MBC, broth microdilution; conditions: Clostridioides difficile, NR49284, C. difficile NR-49284
Protocol: as §2

C. difficile P24 = assay: MIC and MBC, broth microdilution; conditions: Clostridioides difficile, C. difficile P24
Protocol: as §2

C. difficile HM-89 = assay: MIC and MBC, broth microdilution; conditions: Clostridioides difficile, HM89, C. difficile HM-89
Protocol: as §2

C. difficile P1 = assay: MIC and MBC, broth microdilution; conditions: Clostridioides difficile, C. difficile P1
Protocol: as §2

C. difficile NR-49286 = assay: MIC and MBC, broth microdilution; conditions: Clostridioides difficile, NR49286, C. difficile NR-49286
Protocol: as §2

C. difficile P11 = assay: MIC and MBC, broth microdilution; conditions: Clostridioides difficile, C. difficile P11
Protocol: as §2

C. difficile NR-49277 [4] = assay: MIC and MBC, broth microdilution; conditions: Clostridioides difficile, NR49277, C. difficile NR-49277
Protocol: as §2

C. difficile ATCC 43598 = assay: MIC and MBC, broth microdilution; conditions: Clostridioides difficile, ATCC43598, C. difficile ATCC 43598
Protocol: as §2

C. difficile I1 = assay: MIC and MBC, broth microdilution; conditions: Clostridioides difficile, C. difficile I1
Protocol: as §2

C. difficile I4 = assay: MIC and MBC, broth microdilution; conditions: Clostridioides difficile, C. difficile I4
Protocol: as §2

C. difficile P2 = assay: MIC and MBC, broth microdilution; conditions: Clostridioides difficile, C. difficile P2
Protocol: as §2

C. difficile NR-49290 = assay: MIC and MBC, broth microdilution; conditions: Clostridioides difficile, NR49290, C. difficile NR-49290
Protocol: as §2

C. difficile I2 = assay: MIC and MBC, broth microdilution; conditions: Clostridioides difficile, C. difficile I2
Protocol: as §2

C. difficile P7 = assay: MIC and MBC, broth microdilution; conditions: Clostridioides difficile, C. difficile P7
Protocol: as §2

C. difficile P8 = assay: MIC and MBC, broth microdilution; conditions: Clostridioides difficile, C. difficile P8
Protocol: as §2

[5] = tested on: 38 tested C. difficile strains; assay: MIC and MBC over the panel of clinical isolates (MIC50, MIC90, range)
Protocol: as §2

Oc1c(I)cc(I)c2cccnc12 [DIHQ, 5,7-diiodoquinolin-8-ol]
17.8%: inhibition of total toxin production ([1]; C. difficile ATCC BAA-1870, ¼×MIC)
0.25 mg/L: MBC (C. difficile ATCC 9689; read-out: MBC) | MBC (C. difficile NR-49281; read-out: MBC) | MIC (C. difficile NR-49281; read-out: MIC) | MIC (C. difficile NR-49286; read-out: MIC) | MBC (C. difficile P11; read-out: MBC) | MIC (C. difficile P11; read-out: MIC) | MBC (C. difficile P2; read-out: MBC) | MIC (C. difficile P2; read-out: MIC) | MIC (C. difficile NR-49290; read-out: MIC)
~8%: inhibition of total toxin production (C. difficile ATCC 43255; C. difficile ATCC 43255, ¼×MIC)
~31.8%: inhibition of total toxin production (C. difficile NR-49277 [2]; C. difficile NR-49277, ¼×MIC)
27%: inhibition of total toxin production ([1]; C. difficile ATCC BAA-1870, ½×MIC)
0.06 to 2 mg/L: MIC range ([5]; over the 38 tested C. difficile strains)
~38.9%: inhibition of total toxin production (C. difficile NR-49277 [2]; C. difficile NR-49277, ½×MIC)
0.125 mg/L: MIC (C. difficile ATCC 9689; read-out: MIC) | MBC (C. difficile NR-49284; read-out: MBC) | MIC (C. difficile NR-49284; read-out: MIC) | MBC (C. difficile P8; read-out: MBC) | MIC (C. difficile P8; read-out: MIC)
2 mg/L: MBC (C. difficile P24; read-out: MBC) | MBC (C. difficile I2; read-out: MBC) | MIC (C. difficile I2; read-out: MIC) | MIC90 ([5]; Clostridioides difficile, concentration inhibiting growth of 90% of the tested isolates, read-out: MIC90)
1 mg/L: MBC ([3]; read-out: MBC) | MIC ([3]; read-out: MIC) | MIC (C. difficile P24; read-out: MIC) | MBC (C. difficile HM-89; read-out: MBC) | MIC (C. difficile HM-89; read-out: MIC) | MBC (C. difficile ATCC 43598; read-out: MBC) | MIC (C. difficile ATCC 43598; read-out: MIC) | MBC (C. difficile I1; read-out: MBC) | MIC (C. difficile I1; read-out: MIC) | MBC (C. difficile I4; read-out: MBC) | MIC (C. difficile I4; read-out: MIC)
equal to or two-fold higher: MBC values relative to the corresponding MIC values ([5]; all isolates)
0.5 mg/L: MBC (C. difficile ATCC 700057; read-out: MBC) | MIC (C. difficile ATCC 700057; read-out: MIC) | MBC (C. difficile P13; read-out: MBC) | MIC (C. difficile P13; read-out: MIC) | MBC (C. difficile P1; read-out: MBC) | MIC (C. difficile P1; read-out: MIC) | MBC (C. difficile NR-49286; read-out: MBC) | MBC (C. difficile NR-49277 [4]; read-out: MBC) | MIC (C. difficile NR-49277 [4]; read-out: MIC) | MBC (C. difficile NR-49290; read-out: MBC) | MBC (C. difficile P7; read-out: MBC) | MIC (C. difficile P7; read-out: MIC) | MIC50 ([5]; Clostridioides difficile, concentration inhibiting growth of 50% of the tested isolates, read-out: MIC50)
~28.5%: inhibition of total toxin production (C. difficile ATCC 43255; C. difficile ATCC 43255, ½×MIC)

Source: patent publication US11806342B2, “Diiodohydroxyquinoline for the treatment of clostridium difficile infection” (Purdue Research Foundation, priority 2019, dated 2023)
